# Where “and” joins values, the source holds several entries; their conditions need not be identical. Equal values may be shown once.
# Assay: Hepatic microsomal stability, HLM
# Assay type: in vitro ADME, human
# Conditions: In vitro human liver microsomal stability; for perc_remaining_no_cofactor: no cofactor
Structure (SMILES),perc_remaining,t_half,perc_remaining_no_cofactor,"microsomal CLint (human, liver microsomes)",clint
CC(C)C(Nc1ncnc2[nH]ccc12)c1ccc2c(c1)S(=O)(=O)CCC2 (stereo not drawn) [ASAP-0008327],53.0%,44.7 min,99.0%,37 µL/min/mg,
COc1ccc([C@@H](Cc2nnn[nH]2)NC(=O)c2ncnc3[nH]ccc23)cc1 [ASAP-0008340],86.0%,313.8 min,110.0%,,5.0 µL/min/mg
CC(C)[C@@H](Nc1ncnc2[nH]c(-c3cnn(C)c3C#N)cc12)c1ccc2c(n1)OCCO2 [ASAP-0008418],34.0% and 36.0%,28.1 min and 29.7 min,98.0% and 104.0%,,59.0 µL/min/mg and 56.0 µL/min/mg

# From article doi:10.1101/2024.08.19.608619, “Discovery of potent SARS-CoV-2 nsp3 macrodomain inhibitors uncovers lack of translation to cellular antiviral response” (bioRxiv, 2024)
